Experimental findings from US10463618B2, “Nanoemulsions” (The University of Liverpool, priority 2015, dated 2019) are described below.

Data set [1] can be described thus: Solubility of drug in castor oil. Type of data set: physicochemical. How it is done: Non-limiting examples of some suitable drugs include for example the antiretroviral drugs Lopinavir (LPV) and Efavirenz (EFV), and the antibiotics Rifampicin and Erythromycin. Practically, approximately 50 mg/ml Efavirenz or 25 mg/ml Lopinavir can be dissolved in castor oil. Stock solutions of drug dissolved in castor oil were produced (50 mg/ml of Efavirenz in castor oil, or 25 mg/ml of Lopinavir in the same oil).

The nature of data set [2]: Transcellular permeation assay (Caco-2 transwell). It counts as in vitro ADME. Conditions: human. As for the experimental part: (§1) Caco-2 cells were seeded at a density of 35,000 cells per well in the apical chamber of a 24 well Corning® HTS® transwell plate, and left to adhere for 24 hours. After this time, culture media was replenished by removal with an aspirator, also removing those cells that had not adhered. Culture media used was DMEM supplemented with 15% fetal bovine serum, which was continually replenished every other day for a three-week period.
(§2) In different wells the apical or basolateral chambers (donor chambers) were loaded with drug or nanoemulsion containing media, with the opposite chambers (acceptor chambers) of those wells being filled with fresh drug-free media. Samples were taken from both apical and basolateral chambers from all wells at 1, 2, and 24 hour time periods. Samples were then immediately frozen at −40° C. for subsequent batch analysis via high performance liquid chromatography to determine the concentration of the drug in the sample.
(§3) The apparent permeability (Papp) was calculated using the following equation: Papp=((A/T)*(V))/(S*0.3).
(§4) Where A is the concentration in the sample, T is the time in seconds at which the sample was collected, V is the total volume of sample contained in the chamber being sampled, S is the initial starting concentration of the drug and 0.3 is the surface area in cm^2 of the transwell insert on which the Caco-2 cells are grown.
Background: Caco-2 monolayers are a common model of the intestinal barrier.

Data set [3] has as its system extrinsic pathway. In words: Plasma coagulation: prothrombin time (PT). On the set-up: species or system Human. The following applies: 37° C., 30 minutes, 0.16-40 μg/mL. As for the experimental part: (§5) The impact of nanoemulsion formulations on plasma coagulation was also assessed. Human blood from three donors was collected by venepuncture into tubes anti-coagulated with sodium citrate; blood was used within one hour of collection. Test plasma was prepared by centrifuging blood at 2500×g, at 21° C., for 10 minutes with the resultant plasma collected and pooled. Pooled plasma was stable at room temperature for 8 hours. Nanoemulsion samples were prepared at 10× the required final concentration to accommodate dilution when added to test plasma. Concentrations and subsequent dilutions were based on the concentration of Efavirenz contained within the samples with dilutions of blank nanoemulsion diluted in the same fashion. Final concentrations tested were 40 μg/mL, 4 μg/mL, 0.8 μg/mL and 0.16 μg/mL. […]
(§6) Cuvettes were placed into A, B, C and D test rows on the coagulometer and one metal ball added into each cuvette (warmed for at least 3 minutes prior to use). […] Once incubation time was complete coagulation reagent was added to each cuvette and coagulation time recorded. Percentage coefficient of variation was calculated for each control and test samples according to the following formula: % CV=SD/Mean×100%. […] Data was expressed as a percentage of the coagulation time recorded for plasma with no nanomaterial present (plasma only control).

Data set [4] concerns final common pathway. Put plainly: Plasma coagulation: thrombin time (TT). Details: species or system Human. Conditions: 37° C., 30 minutes, 0.16-40 μg/mL. How it is done:
as §5, §6

Data set [5] relates to intrinsic pathway. Put plainly: Plasma coagulation: activated partial thromboplastin time (APTT). Details: species or system Human. As for the experimental part:
as §5, §6

The subject of data set [6] is Caco-2 cells. In words: Transcellular permeation assay (Caco-2 transwell). It counts as in vitro ADME. The following applies: 10 μM. How it is done:
as §1, §2, §3, §4

Where [7] appears, read: Caco-2, 2 hours, read-out: Papp apical to basolateral.

Each structure is given as a SMILES string.

Consider `Cc1cccc(C)c1OCC(=O)N[C@@H](Cc1ccccc1)[C@@H](O)C[C@H](Cc1ccccc1)NC(=O)[C@H](C(C)C)N1CCCNC1=O` [Lopinavir], for which, in data set [1], the “amount that can be dissolved in castor oil” value is around 25 mg/mL. Besides, in data set [2] (Caco-2, 1 hour, read-out: Papp apical to basolateral), the Papp A→B at 1 h, 10 μM was 8.4 ×10⁻⁶ cm/s. In addition, in data set [2] (Caco-2, 1 hour, read-out: Papp basolateral to apical), the Papp B→A at 1 h, 10 μM turned out to be 9.3 ×10⁻⁶ cm/s. In addition, in data set [2] (setting [7]), the Papp A→B at 2 h, 10 μM was found to be 2.7 ×10⁻⁶ cm/s. For the same molecule, in data set [2] (Caco-2, 2 hours, read-out: Papp basolateral to apical), the Papp B→A at 2 h, 10 μM came out at 13 ×10⁻⁶ cm/s.
For `O=C1Nc2ccc(Cl)cc2[C@@](C#CC2CC2)(C(F)(F)F)O1` [Efavirenz], the “amount that can be dissolved in castor oil” value in data set [1] is given as “approximately 50 mg/ml”. The “impact on prothrombin time (PT)” value in data set [3] is recorded as “No impact”. Further, the “impact on thrombin time (TT)” value in data set [4] is “No impact”. The “impact on APTT coagulation time” value in data set [5] is recorded as “did not impact on coagulation time at all”. In addition, the Papp A→B at 2 h, 10 μM in data set [2] (setting [7]) stood at 8.2 ×10⁻⁶ cm/s. In addition, the Papp A→B at 24 h, 10 μM in data set [2] (Caco-2, 24 hours, read-out: Papp apical to basolateral) worked out at 0.7 ×10⁻⁶ cm/s. Moreover, the “Papp basolateral to apical” value in data set [6] (1 hour) and in data set [6] (2 hours) was “increased compared to EFV nanoemulsion” each time.
